{"source": "patent US5281602A", "about": "“Angiotensin II receptor blocking 2,3,6-substituted 5,6,7,8-tetrahydro-pyrido[4,3-D]pyrimidin-4(3H)-ones” (American Cyanamid Company, priority 1993, dated 1994)", "key": {"Angiotension II Receptor": {"biological_target": "Angiotension II Receptor", "assay": "Receptor Binding Assay: competition with [^125 I] (Sar^1,Ile^8) AngII on microsomal membranes", "details": "pH 7.4, 60 min, room temperature", "method": "Binding of [^125 I] (Sar^1,Ile^8) AngII\nThe binding of [^125 I] (Sar^1,Ile^8) AngII to microsomal membranes is initiated by the addition of reconstituted membranes (1:10 vols.) in freshly made 50.0 mMTris.HCl buffer, pH 7.4 containing 0.25% heat inactivated bovine serum albumin (BSA):80 ul membrane protein (10 to 20 ug/assay) to wells already containing 100 ul of incubation buffer (as described above) and 20 ul [^125 I] (Sar^1,Ile^8) AngII (Specific Activity, 2200 Ci/mmole). Non-specific binding is measured in the presence of 1.0 uM unlabeled (Sar^1,Ile^8) AngII, added in 20 ul volume. Specific binding for [^125 I] (Sar^1,Ile^8) AngII is greater than 90%. In competition studies, experimental compounds are diluted in dimethylsulfoxide (DMSO) and added in 20 ul to wells before the introduction of tissue membranes. This concentration of DMSO is found to have no negative effects on the binding of [^125 I] (Sar^1,Ile^8) AngII to the membranes. Assays are performed in triplicate. […] Presoaking the filter sheet in 0.1% polyethylenemine in normal saline (PEI/Saline) greatly reduces the radioactivity retained by the filter blanks. […] The filters are removed from the filter grid and counted in a Parkard® Cobra Gamma Counter for 1 min. […] The binding data are analyzed by the non-linear interactive \"LUNDON-1\" program (LUNDON SOFTWARE Inc., Cleveland, Ohio U.S.A.). […]"}, "[1]": {"tested_on": "ANGIOTENSIN II (A11) VASOPRESSOR RESPONSE", "assay": "AII Challenge: blockade of angiotensin II vasopressor response in conscious SHR", "format": "in vivo, rat (Conscious Male Okamoto-Aoki SHR)", "details": "for Change (single reading, systolic blood pressure) / Response After A11 (systolic blood pressure) / Control Before A11 (systolic blood pressure): 15 mg/kg", "description": "By administering a compound of this invention to a rat, and then challenging with angiotensin II, a blockage of the vasopressor response is realized.\nConscious Male Okamoto-Aoki SHR, 16-20 weeks old, weighing approximately 330 g are purchased from Charles River Labs (Wilmington, Mass.). Conscious rats are restrained in a supine position with elastic tape. The area at the base of the tail is locally anesthetized by subcutaneous infiltration with 2% procaine. The ventral caudal artery and vein are isolated, and a cannula made of polyethylene (PE) 10-20 tubing (fused together by heat) is passed into the lower abdominal aorta and vena cava, respectively. The cannula is secured, heparinized (1,000 I.U./ml), sealed and the wound is closed. The animals are placed in plastic restraining cages in an upright position. The cannula is attached to a Statham P23Db pressure transducer, and pulsatile blood pressure is recorded to 10-15 minutes with a Gould Brush recorder. (Chan et al., (Drug Development Res., 18:75-94, 1989).\nAngiotensin II (human sequence, Sigma Chem. Co., St. Louis, Mo.) of 0.05 and 0.1 ug/kg i.v. is injected into all rats (predosing response). Then a test compound, vehicle or a known angiotensin II antagonist is administered i.v., i.p. or orally to each set of rats. […] The vasopressor response of angiotensin II is measured for the increase in systolic blood pressure in mmHg. The percentage of antagonism or blockade of the vasopressor response of angiotensin II by a compound is calculated using the vasopressor response (increase in systolic blood pressure) of angiotensin II of each rat predosing the compound as 100%. A compound is considered active if at 30 mg/kg i.v. it antagonized at least 50% of the response."}, "[2]": {"details": "15 mg/kg IV (single), AII 0.05 mcg/kg IV, 120 min post dose"}, "[3]": {"details": "15 mg/kg IV (single), AII 0.05 mcg/kg IV, 180 min post dose"}, "[4]": {"details": "15 mg/kg IV (single), AII 0.1 mcg/kg IV, 120 min post dose"}, "[5]": {"details": "15 mg/kg IV (single), AII 0.1 mcg/kg IV, 180 min post dose"}, "[6]": {"details": "15 mg/kg IV, AII 0.05 mcg/kg IV, 30 min post dose"}, "[7]": {"details": "15 mg/kg IV, AII 0.05 mcg/kg IV, 60 min post dose"}, "[8]": {"details": "15 mg/kg IV, AII 0.05 mcg/kg IV, 90 min post dose"}, "[9]": {"details": "15 mg/kg IV, AII 0.1 mcg/kg IV, 30 min post dose"}, "[10]": {"details": "15 mg/kg IV, AII 0.1 mcg/kg IV, 60 min post dose"}, "[11]": {"details": "15 mg/kg IV, AII 0.1 mcg/kg IV, 90 min post dose"}}, "note": "“And” between values parts separate entries of the source, which are not always exact repeats. Equal entries are not always repeated.", "data": [{"smiles": "CCCCc1nc2c(c(=O)n1Cc1ccc(-c3ccccc3-c3nnn[nH]3)cc1)CN(C(=O)C(C)(C)O)CC2", "note": "[Example 16]", "values": [{"measurement": "IC50", "setting": "Angiotension II Receptor", "value": 600, "unit": "nM"}, {"measurement": "Average % Inhibition (angiotensin blockage) of AII vasopressor response", "setting": "[1]; [2]", "value": 39, "unit": "%"}, {"measurement": "Average Change (systolic blood pressure response to AII)", "setting": "[1]; [2]", "value": 27.5, "unit": "mmHg"}, {"measurement": "Change (single reading, systolic blood pressure)", "setting": "[1]; [2]", "value": "35 mmHg and 20 mmHg"}, {"measurement": "Average % Inhibition (angiotensin blockage) of AII vasopressor response", "setting": "[1]; [3]", "value": 6, "unit": "%"}, {"measurement": "Average Change (systolic blood pressure response to AII)", "setting": "[1]; [3]", "value": 42.5, "unit": "mmHg"}, {"measurement": "Change (single reading, systolic blood pressure)", "setting": "[1]; [3]", "value": "55 mmHg and 30 mmHg"}, {"measurement": "Average % Inhibition (angiotensin blockage) of AII vasopressor response", "setting": "[1]; [4]", "value": 35, "unit": "%"}, {"measurement": "Average Change (systolic blood pressure response to AII)", "setting": "[1]; [4]", "value": 32.5, "unit": "mmHg"}, {"measurement": "Change (single reading, systolic blood pressure)", "setting": "[1]; [4]", "value": "40 mmHg and 25 mmHg"}, {"measurement": "Average % Inhibition (angiotensin blockage) of AII vasopressor response", "setting": "[1]; [5]", "value": 5, "unit": "%"}, {"measurement": "Average Change (systolic blood pressure response to AII)", "setting": "[1]; [5]", "value": 47.5, "unit": "mmHg"}, {"measurement": "Change (single reading, systolic blood pressure)", "setting": "[1]; [5]", "value": "50 mmHg and 45 mmHg"}, {"measurement": "Response After A11 (systolic blood pressure)", "setting": "[1]; 15 mg/kg IV (single), after AII 0.05 mcg/kg IV, 120 min post dose", "value": "245 mmHg and 195 mmHg"}, {"measurement": "Response After A11 (systolic blood pressure)", "setting": "[1]; 15 mg/kg IV (single), after AII 0.05 mcg/kg IV, 180 min post dose", "value": "230 mmHg and 195 mmHg"}, {"measurement": "Response After A11 (systolic blood pressure)", "setting": "[1]; 15 mg/kg IV (single), after AII 0.1 mcg/kg IV, 120 min post dose", "value": "240 mmHg and 200 mmHg"}, {"measurement": "Response After A11 (systolic blood pressure)", "setting": "[1]; 15 mg/kg IV (single), after AII 0.1 mcg/kg IV, 180 min post dose", "value": "260 mmHg and 210 mmHg"}, {"measurement": "Control Before A11 (systolic blood pressure)", "setting": "[1]; 15 mg/kg IV (single), before AII 0.05 mcg/kg IV, 120 min post dose", "value": "210 mmHg and 175 mmHg"}, {"measurement": "Control Before A11 (systolic blood pressure)", "setting": "[1]; 15 mg/kg IV (single), before AII 0.05 mcg/kg IV, 180 min post dose", "value": "175 mmHg and 165 mmHg"}, {"measurement": "Control Before A11 (systolic blood pressure)", "setting": "[1]; 15 mg/kg IV (single), before AII 0.1 mcg/kg IV, 120 min post dose", "value": "200 mmHg and 175 mmHg"}, {"measurement": "Control Before A11 (systolic blood pressure)", "setting": "[1]; 15 mg/kg IV (single), before AII 0.1 mcg/kg IV, 180 min post dose", "value": "210 mmHg and 165 mmHg"}, {"measurement": "Average % Inhibition (angiotensin blockage) of AII vasopressor response", "setting": "[1]; [6]", "value": 72, "unit": "%"}, {"measurement": "Average Change (systolic blood pressure response to AII)", "setting": "[1]; [6]", "value": 12.5, "unit": "mmHg"}, {"measurement": "Change (single reading, systolic blood pressure)", "setting": "[1]; [6]", "value": "15 mmHg and 10 mmHg"}, {"measurement": "Average % Inhibition (angiotensin blockage) of AII vasopressor response", "setting": "[1]; [7]", "value": 67, "unit": "%"}, {"measurement": "Average Change (systolic blood pressure response to AII)", "setting": "[1]; [7]", "value": 15, "unit": "mmHg"}, {"measurement": "Average % Inhibition (angiotensin blockage) of AII vasopressor response", "setting": "[1]; [8]", "value": 37, "unit": "%"}, {"measurement": "Average Change (systolic blood pressure response to AII)", "setting": "[1]; [8]", "value": 28.5, "unit": "mmHg"}, {"measurement": "Average % Inhibition (angiotensin blockage) of AII vasopressor response", "setting": "[1]; [9]", "value": 85, "unit": "%"}, {"measurement": "Average Change (systolic blood pressure response to AII)", "setting": "[1]; [9]", "value": 7.5, "unit": "mmHg"}, {"measurement": "Change (single reading, systolic blood pressure)", "setting": "[1]; [9]", "value": "10 mmHg and 5 mmHg"}, {"measurement": "Average % Inhibition (angiotensin blockage) of AII vasopressor response", "setting": "[1]; [10]", "value": 57, "unit": "%"}, {"measurement": "Average Change (systolic blood pressure response to AII)", "setting": "[1]; [10]", "value": 21.5, "unit": "mmHg"}, {"measurement": "Average % Inhibition (angiotensin blockage) of AII vasopressor response", "setting": "[1]; [11]", "value": 33, "unit": "%"}, {"measurement": "Average Change (systolic blood pressure response to AII)", "setting": "[1]; [11]", "value": 33.5, "unit": "mmHg"}, {"measurement": "Change (single reading, systolic blood pressure)", "setting": "[1]; [11]", "value": "42 mmHg and 25 mmHg"}, {"measurement": "Response After A11 (systolic blood pressure)", "setting": "[1]; 15 mg/kg IV, after AII 0.05 mcg/kg IV, 30 min post dose", "value": "210 mmHg and 185 mmHg"}, {"measurement": "Response After A11 (systolic blood pressure)", "setting": "[1]; 15 mg/kg IV, after AII 0.05 mcg/kg IV, 60 min post dose", "value": "215 mmHg and 190 mmHg"}, {"measurement": "Response After A11 (systolic blood pressure)", "setting": "[1]; 15 mg/kg IV, after AII 0.05 mcg/kg IV, 90 min post dose", "value": "225 mmHg and 190 mmHg"}, {"measurement": "Response After A11 (systolic blood pressure)", "setting": "[1]; 15 mg/kg IV, after AII 0.1 mcg/kg IV, 30 min post dose", "value": "205 mmHg and 180 mmHg"}, {"measurement": "Response After A11 (systolic blood pressure)", "setting": "[1]; 15 mg/kg IV, after AII 0.1 mcg/kg IV, 60 min post dose", "value": "220 mmHg and 188 mmHg"}, {"measurement": "Response After A11 (systolic blood pressure)", "setting": "[1]; 15 mg/kg IV, after AII 0.1 mcg/kg IV, 90 min post dose", "value": "230 mmHg and 195 mmHg"}, {"measurement": "Control Before A11 (systolic blood pressure)", "setting": "[1]; 15 mg/kg IV, before AII 0.05 mcg/kg IV, 30 min post dose", "value": "195 mmHg and 175 mmHg"}, {"measurement": "Control Before A11 (systolic blood pressure)", "setting": "[1]; 15 mg/kg IV, before AII 0.05 mcg/kg IV, 60 min post dose", "value": "190 mmHg and 185 mmHg"}, {"measurement": "Control Before A11 (systolic blood pressure)", "setting": "[1]; 15 mg/kg IV, before AII 0.05 mcg/kg IV, 90 min post dose", "value": "183 mmHg and 175 mmHg"}, {"measurement": "Control Before A11 (systolic blood pressure)", "setting": "[1]; 15 mg/kg IV, before AII 0.1 mcg/kg IV, 30 min post dose", "value": "195 mmHg and 175 mmHg"}, {"measurement": "Control Before A11 (systolic blood pressure)", "setting": "[1]; 15 mg/kg IV, before AII 0.1 mcg/kg IV, 60 min post dose", "value": "190 mmHg and 175 mmHg"}, {"measurement": "Control Before A11 (systolic blood pressure)", "setting": "[1]; 15 mg/kg IV, before AII 0.1 mcg/kg IV, 90 min post dose", "value": "188 mmHg and 170 mmHg"}]}]}
